# From publication PMC5007552, “The hVps34‐SGK3 pathway alleviates sustained PI3K/Akt inhibition by stimulating mTORC1 and tumour growth” (The EMBO Journal, 2016)
# Several values for one entry are separate records, joined by “and”; a condition that tells them apart may be missing. Equal entries are not always repeated.
# Test system: ZR-75-1 cells
# Assay: NanoString human kinome mRNA quantification
# Assay type: cell-based
# Excerpt: Human mRNAs were hybridised to NanoString human kinome and control code sets, then subjected to quantification using NanoString software. […] To permit data compaction, and simple kinome‐wide comparisons, the fold changes are log2 transformed. […] Cell pellets were resuspended at a concentration of ~6,500 cells/μl in RLT buffer (Qiagen). […] For total copy numbers, triplicate normalised count values were averaged, and to calculate fold induction, means were divided by triplicate mean values from matched DMSO controls. P‐values were calculated using unpaired t‐test (GraphPad Prism software) by employing treated and control count data for each kinase mRNA.
structure (smiles),measurement,setting,value
NC1(c2ccc(-c3nc4ccn5c(=O)[nH]nc5c4cc3-c3ccccc3)cc2)CCC1 [MK-2206],CDK18 normalised counts (replicates),CDK18 mRNA,93.28 and 102.4 and 103.9
same,CDK19 average normalised counts,CDK19 mRNA,336.707
same,CDK19 normalised counts (replicates),CDK19 mRNA,340.52 and 347.39 and 322.21
same,CDK20 average normalised counts,CDK20 mRNA,89.7167
same,CDK20 normalised counts (replicates),CDK20 mRNA,106.01 and 80.68 and 82.46
same,CDKL1 average normalised counts,CDKL1 mRNA,1
same,CDKL1 normalised counts (replicates),CDKL1 mRNA,1
same,CDKL2 average normalised counts,CDKL2 mRNA,5.853
same,CDKL2 normalised counts (replicates),CDKL2 mRNA,6.93 and 5.97 and 4.66
same,CDKL3 average normalised counts,CDKL3 mRNA,93.1667
same,CDKL3 normalised counts (replicates),CDKL3 mRNA,98.74 and 82.42 and 98.34
same,CDKL4 average normalised counts,CDKL4 mRNA,49.8833
same,CDKL4 normalised counts (replicates),CDKL4 mRNA,49.65 and 57.23 and 42.77
same,CDKL5 average normalised counts,CDKL5 mRNA,46.4467
same,CDKL5 normalised counts (replicates),CDKL5 mRNA,46.93 and 52.02 and 40.39
same,CHEK1 average normalised counts,CHEK1 mRNA,416.797
same,CHEK1 normalised counts (replicates),CHEK1 mRNA,440.51 and 390.82 and 419.06
same,CHEK2 average normalised counts,CHEK2 mRNA,813.71
same,CHEK2 normalised counts (replicates),CHEK2 mRNA,824.09 and 812.16 and 804.88
same,CHUK average normalised counts,CHUK mRNA,732.773
same,CHUK normalised counts (replicates),CHUK mRNA,715.01 and 761.78 and 721.53
same,CIT average normalised counts,CIT mRNA,394.403
same,CIT normalised counts (replicates),CIT mRNA,393.24 and 389.96 and 400.01
same,CLK1 average normalised counts,CLK1 mRNA,994.453
same,CLK1 normalised counts (replicates),CLK1 mRNA,974.07 and 1043.25 and 966.04
same,CLK2 average normalised counts,CLK2 mRNA,1169.5
same,CLK2 normalised counts (replicates),CLK2 mRNA,1152.23 and 1182.25 and 1174.03
same,CLK3 average normalised counts,CLK3 mRNA,710.143
same,CLK3 normalised counts (replicates),CLK3 mRNA,731.38 and 705.31 and 693.74
same,CLK4 average normalised counts,CLK4 mRNA,709.387
same,CLK4 normalised counts (replicates),CLK4 mRNA,719.56 and 687.07 and 721.53
same,COL4A3BP average normalised counts,COL4A3BP mRNA,420.653
same,COL4A3BP normalised counts (replicates),COL4A3BP mRNA,415.06 and 433.39 and 413.51
same,CPNE3 normalised counts (replicates),CPNE3 mRNA,2313.35
same,CSF1R average normalised counts,CSF1R mRNA,1
same,CSF1R normalised counts (replicates),CSF1R mRNA,1
same,CSK average normalised counts,CSK mRNA,629.517
same,CSK normalised counts (replicates),CSK mRNA,633.21 and 603.67 and 651.67
same,CSNK1A1L average normalised counts,CSNK1A1L mRNA,2.067
same,CSNK1A1L normalised counts (replicates),CSNK1A1L mRNA,4.2 and 1 (2×)
same,CSNK1A1 average normalised counts,CSNK1A1 mRNA,854.287
same,CSNK1A1 normalised counts (replicates),CSNK1A1 mRNA,855.9 and 833.01 and 873.95
same,CSNK1D average normalised counts,CSNK1D mRNA,6324.07
same,CSNK1D normalised counts (replicates),CSNK1D mRNA,6300.6 and 6273.94 and 6397.68
same,CSNK1E average normalised counts,CSNK1E mRNA,1485.08
same,CSNK1E normalised counts (replicates),CSNK1E mRNA,1520.36 and 1448.08 and 1486.81
same,Average normalised counts,CSNK1G1 mRNA,1243.9
same,Normalised counts,"CSNK1G1 mRNA, single replicates",1266.76 and 1245.67 and 1219.28
same,Average normalised counts,CSNK1G2 mRNA,674.087
same,Normalised counts,"CSNK1G2 mRNA, single replicates",671.38 and 671.43 and 679.45
same,Average normalised counts,CSNK1G3 mRNA,1032.23
same,Normalised counts,"CSNK1G3 mRNA, single replicates",1024.97 and 1049.33 and 1022.4
same,Average normalised counts,CSNK2A1 mRNA,568.443
same,Normalised counts,"CSNK2A1 mRNA, single replicates",546.86 and 575.87 and 582.6
same,Average normalised counts,CSNK2A2 mRNA,157.413
same,Normalised counts,"CSNK2A2 mRNA, single replicates",146.91 and 157.13 and 168.2
same,Average normalised counts,DAPK1 mRNA,21.41
same,Normalised counts,"DAPK1 mRNA, single replicates",22.38 and 18.13 and 23.72
same,Average normalised counts,DAPK2 mRNA,44.4967
same,Normalised counts,"DAPK2 mRNA, single replicates",37.84 and 52.88 and 42.77
same,Average normalised counts,DCLK1 mRNA,64.6967
same,Normalised counts,"DCLK1 mRNA, single replicates",61.47 and 58.1 and 74.52
same,Average normalised counts,DCLK2 mRNA,1
same,Normalised counts,"DCLK2 mRNA, single replicates",1
same,Average normalised counts,DCLK3 mRNA,1
same,Normalised counts,"DCLK3 mRNA, single replicates",1
same,Normalised counts,"DDR1 mRNA, single replicates",2268.77
same,Average normalised counts,DDR2 mRNA,24.12
same,Normalised counts,"DDR2 mRNA, single replicates",24.2 and 26.82
same,Average normalised counts,DMPK mRNA,79.4267
same,Normalised counts,"DMPK mRNA, single replicates",89.65 and 78.08 and 70.55
same,Average normalised counts,DSTYK mRNA,288.937
same,Normalised counts,"DSTYK mRNA, single replicates",315.98 and 310.3
same,Average normalised counts,DYRK1A mRNA,1263.91
same,Normalised counts,"DYRK1A mRNA, single replicates",1248.58 and 1277.81 and 1265.33
same,Average normalised counts,DYRK1B mRNA,113.827
same,Normalised counts,"DYRK1B mRNA, single replicates",104.19 and 111.96 and 125.33
same,Average normalised counts,DYRK2 mRNA,852.053
same,Normalised counts,"DYRK2 mRNA, single replicates",855.9 and 810.43 and 889.83
same,Average normalised counts,DYRK3 mRNA,83.6267
same,Normalised counts,"DYRK3 mRNA, single replicates",80.56 and 90.24 and 80.08
same,Average normalised counts,DYRK4 mRNA,50.6933
same,Normalised counts,"DYRK4 mRNA, single replicates",52.38 and 53.75 and 45.95
same,Average normalised counts,EEF2K mRNA,449.027
same,Normalised counts,"EEF2K mRNA, single replicates",425.05 and 457.72 and 464.31
same,Average normalised counts,EGFR mRNA,78.07
same,Normalised counts,"EGFR mRNA, single replicates",75.1 and 79.82 and 79.29
same,Average normalised counts,EIF2AK1 mRNA,3890.11
same,Normalised counts,"EIF2AK1 mRNA, single replicates",3762.77 and 3749.38 and 4158.18
same,Average normalised counts,EIF2AK2 mRNA,387.137
same,Normalised counts,"EIF2AK2 mRNA, single replicates",351.43 and 373.45 and 436.53
same,Average normalised counts,EIF2AK3 mRNA,167.45
same,Normalised counts,"EIF2AK3 mRNA, single replicates",158.73 and 166.69 and 176.93
same,Average normalised counts,EIF2AK4 mRNA,999.56
same,Normalised counts,"EIF2AK4 mRNA, single replicates",986.79 and 999.81 and 1012.08
same,Average normalised counts,EPHA1 mRNA,298.103
same,Normalised counts,"EPHA1 mRNA, single replicates",293.25 and 307.43 and 293.63
same,Average normalised counts,EPHA2 mRNA,98.1433
same,Normalised counts,"EPHA2 mRNA, single replicates",101.46 and 85.9 and 107.07
same,Average normalised counts,EPHA3 mRNA,1
same,Normalised counts,"EPHA3 mRNA, single replicates",1
same,Average normalised counts,EPHA4 mRNA,54.0467
same,Normalised counts,"EPHA4 mRNA, single replicates",47.83 and 66.78 and 47.53
same,Average normalised counts,EPHA5 mRNA,2.657
same,Normalised counts,"EPHA5 mRNA, single replicates",2.39 and 2.5 and 3.08
same,Average normalised counts,EPHA6 mRNA,46.39
same,Normalised counts,"EPHA6 mRNA, single replicates",39.65 and 42.46 and 57.06
same,Average normalised counts,EPHA7 mRNA,9.993
same,Normalised counts,"EPHA7 mRNA, single replicates",14.2 and 10.32 and 5.46
same,Average normalised counts,EPHA8 mRNA,2.44
same,Normalised counts,"EPHA8 mRNA, single replicates",4.2 and 1.63 and 1.49
same,Average normalised counts,EPHA10 mRNA,29.9233
same,Normalised counts,"EPHA10 mRNA, single replicates",36.93 and 25.95 and 26.89
same,Average normalised counts,EPHB1 mRNA,2.73
same,Normalised counts,"EPHB1 mRNA, single replicates",4.2 and 2.5
same,Average normalised counts,EPHB2 mRNA,16.0233
same,Average normalised counts,EPHB3 mRNA,206.547
same,Average normalised counts,EPHB4 mRNA,1166.85
same,Average normalised counts,EPHB6 mRNA,2.217
same,Average normalised counts,ERBB2 mRNA,3923.04
same,Average normalised counts,ERBB3 mRNA,1260.11
same,Average normalised counts,ERBB4 mRNA,408.193
same,Average normalised counts,ERN1 mRNA,386.247
same,Average normalised counts,ERN2 mRNA,2.483
same,Average normalised counts,FASTK mRNA,67.2133
same,Average normalised counts,FASTKD1 mRNA,614.733
same,Average normalised counts,FASTKD2 mRNA,563.933
same,Average normalised counts,FASTKD3 mRNA,173.083
same,Average normalised counts,FASTKD5 mRNA,437.597
same,Average normalised counts,FER mRNA,455.723
same,Average normalised counts,FES mRNA,1.427
same,Average normalised counts,FGFR1 mRNA,1112.53
same,Average normalised counts,FGFR2 mRNA,189.803
same,Average normalised counts,FGFR3 mRNA,1392.79
same,Average normalised counts,FGFR4 mRNA,1462.07
same,Average normalised counts,FGFRL1 mRNA,1225.18
same,Average normalised counts,FGR mRNA,1
same,Average normalised counts FLJ25006,"FLJ25006 mRNA, average of 3 replicates",106.973
same,Normalised counts FLJ25006,"FLJ25006 mRNA, single replicates",105.1 and 102.4 and 113.42
same,Average normalised counts FLT1,"FLT1 mRNA, average of 3 replicates",1
same,Normalised counts FLT1,"FLT1 mRNA, single replicates",1
same,Average normalised counts FLT3,"FLT3 mRNA, average of 3 replicates",149.337
same,Normalised counts FLT3,"FLT3 mRNA, single replicates",146.91 and 161.48 and 139.62
same,Average normalised counts FLT4,"FLT4 mRNA, average of 3 replicates",1.957
same,Normalised counts FLT4,"FLT4 mRNA, single replicates",1 (2×) and 3.87
same,Average normalised counts FRK,"FRK mRNA, average of 3 replicates",160.35
same,Normalised counts FRK,"FRK mRNA, single replicates",165.09 and 158.87 and 157.09
same,Average normalised counts FYN,"FYN mRNA, average of 3 replicates",5.563
same,Normalised counts FYN,"FYN mRNA, single replicates",5.11 and 7.71 and 3.87
same,Average normalised counts GAK,"GAK mRNA, average of 3 replicates",673.637
same,Normalised counts GAK,"GAK mRNA, single replicates",641.39 and 690.54 and 688.98
same,Average normalised counts GRK1,"GRK1 mRNA, average of 3 replicates",10.12
same,Normalised counts GRK1,"GRK1 mRNA, single replicates",8.75 and 4.24 and 17.37
same,Average normalised counts GRK4,"GRK4 mRNA, average of 3 replicates",59.8967
same,Normalised counts GRK4,"GRK4 mRNA, single replicates",59.65 and 50.28 and 69.76
same,Normalised counts GRK5,"GRK5 mRNA, single replicates",18.75 and 22.48 and 22.13
same,Average normalised counts GRK7,"GRK7 mRNA, average of 3 replicates",1.957
same,Normalised counts GRK7,"GRK7 mRNA, single replicates",1 (2×) and 3.87
same,Average normalised counts GSG2,"GSG2 mRNA, average of 3 replicates",390.143
same,Normalised counts GSG2,"GSG2 mRNA, single replicates",395.97 and 394.3 and 380.16
same,Average normalised counts GSK3A,"GSK3A mRNA, average of 3 replicates",3191.73
same,Normalised counts GSK3A,"GSK3A mRNA, single replicates",3156.49 and 3192.52 and 3226.18
same,Average normalised counts GSK3B,"GSK3B mRNA, average of 3 replicates",4035
same,Normalised counts GSK3B,"GSK3B mRNA, single replicates",3944.57 and 4049.09 and 4111.34
same,Average normalised counts GUCY2C,"GUCY2C mRNA, average of 3 replicates",1
same,Normalised counts GUCY2C,"GUCY2C mRNA, single replicates",1
same,Average normalised counts GUCY2D,"GUCY2D mRNA, average of 3 replicates",5.627
same,Normalised counts GUCY2D,"GUCY2D mRNA, single replicates",6.02 and 8.58 and 2.28
same,Average normalised counts GUCY2F,"GUCY2F mRNA, average of 3 replicates",1.693
same,Normalised counts GUCY2F,"GUCY2F mRNA, single replicates",1 (2×) and 3.08
same,Average normalised counts HCK,"HCK mRNA, average of 3 replicates",1.533
same,Normalised counts HCK,"HCK mRNA, single replicates",1.48 and 1.63 and 1.49
same,Average normalised counts HIPK1,"HIPK1 mRNA, average of 3 replicates",582.127
